In US7102056B1, “Compositions and methods for plant transformation and regeneration” (The Regents of the University of California, priority 1997, dated 2006):

Assays:
Galena immature embryos = assay: Callus-induction frequency on callus-induction media (CIM); assay type: cell-based, barley (Hordeum vulgare L.); settings: Galena half embryos on CIM; 2 to 3 weeks after initial culturing; means ± SD of three replicates
Protocol: (§1) Immature embryos (about 1.5-2.5 mm in size) were taken from spikes approximately three months in age that were surface-sterilized in 20% (v/v) bleach (5.25% sodium hypochlorite) for 7 min. washed 5 min with sterile water three times, bisected longitudinally, and placed on CIM. Ten half-embryos were tested on CIM supplemented with each of the fourteen phytohormone combinations; each treatment had three replicates. (Whole embryos can also be used.) Callus-induction frequency was measured by counting numbers of half embryos undergoing callus induction under a light microscope 2 to 3 weeks after initial culturing.
(§2) Immature zygotic embryos about 1.5 to 2.5 mm in size were dissected and isolated intact under a stereo dissecting microscope from seeds that were surface-sterilized for 10 min in 20% (v/v) bleach (5.25% sodium hypochlorite) followed by three washes in sterile water. The embryos were placed scutellum-side down on CIM.
(§3) Six different CIMs were used to test callus-induction frequencies and callus quality. The CIMs had, respectively, different concentrations of: 2,4-D (1.0 and 2.5 mg/L), BAP (0.01, 0.1 and 0.5 mg/L), and cupric sulfate (CuSO4; 0.1 and 5.0 μM) as shown in Table 7.
(§4) The initial callus-induction frequency was determined using CIM of different compositions. Ten immature embryos from the barley genotypes Golden Promise and Galena were transferred to each CIM. Each CIM contained the following levels of hormones and copper: D, 2.5 mg/L 2,4-D and 0.1 μM CuSO4; DC, 2.5 mg/L 2,4-D and 5.0 μM CuSO4; DB, 2.5 mg/L 2,4-D, 0.1 mg/L BAP, 0.1 μM CuSO4; DBC1, 2.5 mg/L 2,4-D, 0.01 mg/L BAP and 5.0 μM CuSO4; DBC2, 2.5 mg/L 2,4-D, 0.1 mg/L BAP and 5.0 μM CuSO4; DBC3, 1.0 mg/L 2,4-D, 0.5 mg/L BAP and 5.0 μM CuSO4. Callus quality was assessed microscopically and scored on a scale with ++++ designating highest quality and +designating lowest quality. Values were measured three weeks after initial callus induction and represent means of three replicates for each treatment. […] Tissue quality was poor on CIM containing BAP three weeks after induction but improved after two to three transfers on this medium. Only a fraction of scutellar tissues on Galena immature embryos formed callus, while most of the scutellar surface on Golden Promise immature embryos formed high-quality callus.

[1] = system: Golden Promise immature embryos; assay: as above; assay type: cell-based, barley (Hordeum vulgare L.); settings: Golden Promise half embryos on CIM; 2 to 3 weeks after initial culturing; means ± SD of three replicates
Protocol: as §1, §2, §3, §4

[2] = system: nontransgenic callus tissues of Golden Promise; assay: Regeneration via an intermediate-incubation step, nontransgenic callus; assay type: cell-based, barley; settings: two-month-old callus of Golden Promise maintained on CIM containing the auxin alone
Protocol: Callus induction was performed as described above using CIM with 2.5 mg/L of 2,4-D or dicamba (no cytokinin). After incubation for three weeks at 24±1° C. in the dark, callus was cut into small pieces (about 3 to 4 mm), then maintained on the same medium with subculturing at three-week intervals.
Ten pieces of two-month-old nontransgenic calli grown on CIM supplemented with either 2,4-D or dicamba in the dark were transferred to RM either directly or following incubation on an IIM.
Two different IIM were used, DBC2 and DBC3. DBC2 medium is CIM containing 2.5 mg/L 2,4-D, 0.1 mg/L BAP, and 5.0 μM copper (cupric sulfate). DBC3 medium is CIM containing 1.0 mg/L 2,4-D, 0.5 mg/L BAP, and 5.0 μM copper. After growing calli on these media for 3-4 weeks under dim light conditions (20 to 30 μE; 16 h light/8 h dark), the numbers of calli producing green sectors or green regenerative structures were counted. Green sectors and small green regenerative structures were then transferred to fresh RM and grown under higher light intensity (45-55 μE). After 3-4 weeks, the numbers of green shoots per callus piece were counted. […]

[3] = system: Golden Promise immature embryos; assay: Callus quality on twelve callus-induction media (auxin types, copper); assay type: cell-based, barley
Protocol: (§5) To examine the effects of different types of auxins and concentrations of copper on callus quality and regenerability in barley, twelve different media were tested, using methods essentially as described in Example 2 above.

calli of Golden Promise = assay: Regenerability of calli from twelve callus-induction media (auxin types, copper); assay type: cell-based, barley
Protocol: as §5

[4] = system: green tissue of Golden Promise, Galena and Harrington; assay: Selection and regeneration of bombarded green tissues with selective agents; assay type: cell-based; settings: bombarded barley green tissues under selection
Protocol: The green regenerative tissues generated and maintained on one or two of these media, DBC2 (comprising 2.5 mg/L 2,4-D, 0.1 mg/L BAP and 5.0 μM CuSO4, Cho et al., 1998) or DBC3 (comprising 1.0 mg/L 2,4-D, 0.5 mg/L BAP and 5.0 μM CuSO4, Cho et al., 1998), were used directly as transformation targets. For bombardment, 3 to 4 mm pieces of green tissue of Golden Promise, Galena and Harrington, removed 3 to 4 months after initiation of the original culture, were osmotically treated on DBC2 or DBC3 medium and bombarded the same day with three different selection constructs, ubi-bar/ubi-uidA, ubi-nptII/ubi-uidA and act-hpt/ubi-uidA. […] Sixteen to 18 hr post-bombardment, green tissues were transferred without osmoticum or selective agent to dim light on DBC2 or DBC3 medium for Golden Promise and Harrington or DBC3 for Galena. Selection with all agents started […] post-bombardment to allow for proliferation of transformed cells in the absence of the cell death resulting from wounding or selection. At that time, tissue was broken into pieces (3-5 mm) and transferred to either DBC2 or DBC3 medium (depending on morphology) with 3 mg/L bialaphos (bar), 20-25 mg/L hygromycin B (hpt) or 30 mg/L G418 (nptII), depending on the construct used. Starting with the third round of selection, levels of selective agent were increased to 45 mg/L bialaphos, 25 mg/L hygromycin B or 40 mg/L G418. […]

SMILES | Callus Induction Frequency (%) GAL (Galena immature embryos) | Callus Induction Frequency (%) GP [1] | green shoots per callus piece [2] | induction of calli which regenerated green plants (calli of Golden Promise) | albino plants during regeneration of selected tissues [4] | other results
O=C(O)COc1ccc(Cl)cc1Cl [2,4-D, 2,4-dichlorophenoxyacetic acid] | ~100% | ~100% | 0.35 |  |  | 
O=C(O)Cc1c[nH]c2ccccc12 [IAA] |  |  |  | Neither IAA nor NAA was optimal |  | callus quality [3]: poorer callus quality than the other auxins
O=C(O)Cc1cccc2ccccc12 [NAA] |  |  |  | Neither IAA nor NAA was optimal |  | 
C[C@H](NC(=O)[C@H](C)NC(=O)[C@@H](N)CCP(C)(=O)O)C(=O)O [bialaphos] |  |  |  |  | no albino plants were observed | 
COc1c(Cl)ccc(Cl)c1C(=O)O [dicamba] | ~100% | ~100% | 1.15 |  |  | 
CN[C@H]1C[C@@H](N)[C@H](O)[C@@H](O[C@@H]2O[C@H](CO)[C@H](O)[C@@H]3OC4(O[C@H]23)O[C@H]([C@@H](N)CO)[C@H](O)[C@H](O)[C@H]4O)[C@@H]1O (some centres unmarked) [hygromycin B] |  |  |  |  | frequently albino plants were observed | 
